# Legend:
# Mus musculus [1] = test: Hypoglycemic activity in db/db mouse assessed as reduction in blood glucose level at 10 mg/kg; type: functional; parameters: scale not given: the % may be the effect or the level left
# Mus musculus [2] = test: Hypolipidemic activity in db/db mouse assessed as reduction in triglyceride level at 10 mg/kg; type: functional; parameters: scale not given: the % may be the effect or the level left
# Rattus norvegicus [3] = organism: Rattus norvegicus; test: Antidiabetic activity in Wistar rat assessed as reduction in blood glucose level after 120 mins; type: functional; conditions: 2 h
# Nakaseomyces glabratus = test: Antifungal activity against Candida glabrata; type: functional
# Candida parapsilosis = test: Antifungal activity against Candida parapsilosis; type: functional; conditions: Lodderomyces parapsilosis
# Pichia kudriavzevii = test: Antifungal activity against Candida krusei; type: functional
# Candida albicans = test: Antifungal activity against Candida albicans; type: functional
# Aspergillus niger [4] = test: Antifungal activity against Aspergillus niger; type: functional
# [5] = target: Xanthine dehydrogenase/oxidase (Homo sapiens, UniProt P47989); test: Inhibition of human milk xanthine oxidase relative to control
# Escherichia coli [6] = test: Antibacterial activity against Escherichia coli; type: functional
# Mus musculus [7] = organism: Mus musculus; test: Antihyperglycemic activity in sucrose loaded mouse model assessed as decrease in blood glucose level; type: functional; parameters: scale not given: the % may be the effect or the level left
# Mus musculus [8] = test: Hypoglycemic activity in C57BL/6J db/db mouse assessed as reduction in blood glucose level at 50 mg/kg after 3 days; type: functional; parameters: scale not given: the % may be the effect or the level left; conditions: time 3 day
# Mus musculus [9] = test: Hypolipidemic activity in C57BL/6J db/db mouse assessed as reduction in triglyceride level at 200 mg/kg; type: functional; parameters: scale not given: the % may be the effect or the level left
# [10] = target: Hexokinase-4 (Homo sapiens) (UniProt P35557); test: Agonist activity at glucokinase (unknown origin) assessed as fold increase at 10 uM by luciferase reporter gene assay; conditions: filed as agonist
# [11] = target: Peroxisome proliferator-activated receptor gamma (Homo sapiens) (UniProt P37231); test: Agonist activity at PPARgamma (unknown origin) assessed as fold increase at 10 uM by luciferase reporter gene assay; conditions: filed as agonist
# [12] = target: Peroxisome proliferator-activated receptor gamma (Homo sapiens, UniProt P37231); test: Agonist activity at human PPARgamma transfected in HEK293 cells assessed increase in luciferase activity incubated for 24 hrs; type: cell-based
# Salmonella typhimurium = test: Antibacterial activity against Salmonella typhimurium; type: functional, Salmonella enterica subsp. enterica serovar Typhimurium; conditions: Salmonella enterica
# Staphylococcus aureus [13] = test: Antibacterial activity against Staphylococcus aureus; type: functional
# Pseudomonas aeruginosa [14] = test: Antibacterial activity against Pseudomonas aeruginosa; type: functional
# Bacillus subtilis = test: Antibacterial activity against Bacillus subtilis; type: functional
# [15] = Inhibition of bovine lens ALR2; type: tissue-based, Bos taurus
# [16] = target: Human immunodeficiency virus type 1 reverse transcriptase (Human immunodeficiency virus 1, UniProt Q72547); test: Inhibition of HIV-1 reverse transcriptase
# Klebsiella pneumoniae = test: Antibacterial activity against Klebsiella pneumoniae; type: functional
# [17] = target: Human immunodeficiency virus type 1 reverse transcriptase (Human immunodeficiency virus 1) (UniProt Q72547); test: Inhibition of HIV-1 reverse transcriptase relative to control; conditions: concentration not given here
# Mus musculus [18] = test: Hypoglycemic activity in db/db mouse assessed as reduction in blood glucose level at 30 mg/kg/day, po administered for 6 days; type: functional; parameters: scale not given: the % may be the effect or the level left; conditions: time 6 day
# Mus musculus [19] = test: Hypolipidemic activity in db/db mouse assessed as reduction in triglyceride level at 30 mg/kg/day, po administered for 6 days; type: functional; parameters: scale not given: the % may be the effect or the level left; conditions: time 6 day
# Mus musculus [20] = organism: Mus musculus; test: Hypolipidemic activity in KKAY mouse assessed as reduction in triglyceride level; type: functional
# Mus musculus [21] = organism: Mus musculus; test: Hypoglycemic activity in KKAY mouse assessed as reduction in blood glucose level; type: functional
# Rattus norvegicus [22] = organism: Rattus norvegicus; test: Antidiabetic activity in Wistar rat assessed as increase in glucose uptake in presence of insulin after 45 mins; type: functional; conditions: 0.75 h
# Rattus norvegicus [23] = organism: Rattus norvegicus; test: Antidiabetic activity in Wistar rat assessed as increase in glucose uptake in absence of insulin after 45 mins; type: functional; conditions: 0.75 h
# Staphylococcus aureus [24] = test: Antibacterial activity against Staphylococcus aureus ATCC 9144; type: functional
# Escherichia coli [25] = test: Antibacterial activity against Escherichia coli ATCC 25922; type: functional
# Aspergillus niger [26] = test: […] activity against Aspergillus niger ATCC-9029; type: functional
# Aspergillus fumigatus = test: […] activity against Aspergillus fumigatus ATCC-46645; type: functional
# [27] = test system: Staphylococcus epidermidis; test: Antibacterial activity against Staphylococcus epidermidis ATCC-155; type: functional
# Pseudomonas aeruginosa [28] = test: Antibacterial activity against Pseudomonas aeruginosa […]; type: functional
# [29] = target: Peroxisome proliferator-activated receptor gamma (Homo sapiens) (UniProt P37231); test: Transactivation of PPARgamma (unknown origin) expressed in HEK293 cells at 10 uM after 24 hrs by luminometer assay; type: cell-based; conditions: filed as activator
# Rattus norvegicus [30] = organism: Rattus norvegicus; test: Hypolipidemic activity in alloxan induced diabetic rat model assessed as increase in HDL; type: functional
# Rattus norvegicus [31] = organism: Rattus norvegicus; test: Hypolipidemic activity in alloxan induced diabetic rat model assessed as increase in HDL/LDL ratio; type: functional
# RAW264.7 = test: Inhibition of LPS-induced NO production in mouse RAW264.7 cells; type: functional
# [32] = Inhibition of bacterial peptide deformylase; parameters: species or system Bacteria
# Mus musculus [33] = test: Hypoglycemic activity in db/db mouse assessed as reduction in blood glucose level at 100 mg/kg/day; type: functional
# [34] = Bacillus subtilis, read-out: MIC
smiles,measurement,setting,value
CCc1ccc(CCOc2ccc(CC3SC(=O)NC3=O)cc2)nc1 (stereo unspecified) [PIOGLITAZONE],Activity,Mus musculus [1],46.2%
same,Activity,Mus musculus [2],46.9%
same,Activity,Rattus norvegicus [3],115 mg/dL
Cc1nn(COc2ccc(CC3SC(=O)NC3=O)cc2)c(=O)c2ccccc12 (stereo unspecified),Activity,Mus musculus [1],72%
same,Activity,Mus musculus [2],68%
O=C(CN1C(=O)S/C(=C\c2cccc(-c3cc(=O)c4ccccc4o3)c2)C1=O)c1ccc(F)cc1,MIC,Nakaseomyces glabratus,6.25 µg/mL
same,MIC,Candida parapsilosis,6.25 µg/mL
same,MIC,Pichia kudriavzevii,6.25 µg/mL
same,MIC,Candida albicans,6.25 µg/mL
COc1cc(/C=C2\SC(=O)N(CC(=O)O)C2=O)cc(OC)c1OC,Activity,Rattus norvegicus [3],104 mg/dL
OC(Cn1cncn1)(Cn1cncn1)c1ccc(F)cc1F [FLUCONAZOLE],MIC,Aspergillus niger [4],12.5 µg/mL
same,MIC,Candida albicans,12.5 µg/mL
CCc1ccc(CCOc2ccc(CC3SC(=O)N(CCCCCCC#N)C3=O)cc2)nc1 (stereo unspecified),inhibition (INH),[5],72%
CC1(C)S[C@@H]2[C@H](NC(=O)[C@H](N)c3ccccc3)C(=O)N2[C@H]1C(=O)O [AMPICILLIN],MIC,Candida albicans,500 µg/mL
same,MIC,Escherichia coli [6],100 µg/mL
CCOC(=O)CN1C(=O)SC(Cc2ccc(O)cc2)C1=O (stereo unspecified),Activity,Mus musculus [7],-26.7%
O=C(CN1C(=O)S/C(=C\c2cccc(-c3cc(=O)c4ccccc4o3)c2)C1=O)c1ccc([N+](=O)[O-])cc1,MIC,Nakaseomyces glabratus,6.25 µg/mL
same,MIC,Candida parapsilosis,6.25 µg/mL
same,MIC,Pichia kudriavzevii,6.25 µg/mL
same,MIC,Candida albicans,6.25 µg/mL
O=C1NC(=O)C(Cc2ccc(OCCn3ccc4ccccc43)cc2)S1 (stereo unspecified),Activity,Mus musculus [8],60%
same,Activity,Mus musculus [9],77%
CC(C)OC(=O)c1ccc(NC(=O)Cc2ccc(/C=C3\SC(=O)NC3=O)cc2[N+](=O)[O-])nc1,fold change (FC),[10],2.9
same,Activity,[11],48%
COC(=O)/C(=C\c1cc(OC)cc(OC)c1)c1ccc(Oc2ccc(CC3SC(=O)NC3=O)cc2)cc1 (stereo unspecified),EC50,[12],284 nM
O=C(O)c1cn(C2CC2)c2cc(N3CCNCC3)c(F)cc2c1=O [CIPROFLOXACIN],MIC,Salmonella typhimurium,0.78 µg/mL
same,MIC,Staphylococcus aureus [13],0.78 µg/mL
same,MIC,Pseudomonas aeruginosa [14],0.78 µg/mL
same,MIC,Bacillus subtilis; [34],0.78 µg/mL
O=C(O)CN1C(=O)S/C(=C\c2cccc(Oc3ccccc3)c2)C1=O,IC50,[15],130 nM
Cc1ccc(C)c(/C=C2\SC(=O)N(CCC(=O)Nc3ccccc3O)C2=O)c1,IC50,[16],1310 nM
same,MIC,Klebsiella pneumoniae,6.25 µg/mL
same,MIC,Salmonella typhimurium,6.25 µg/mL
same,MIC,Aspergillus niger [4],25 µg/mL
same,MIC,Candida albicans,12.5 µg/mL
same,MIC,Pseudomonas aeruginosa [14],6.25 µg/mL
same,inhibition,[17],73%
same,MIC,Escherichia coli [6],6.25 µg/mL
same,MIC,Bacillus subtilis; [34],6.25 µg/mL
CCc1nc(C)cc(=O)n1CCOc1ccc(CC2SC(=O)NC2=O)cc1 (stereo unspecified),Activity,Mus musculus [18],73%
same,Activity,Mus musculus [19],85%
CCOC(=O)CN1C(=O)SC(Cc2ccc(OC(C)=O)cc2)C1=O (stereo unspecified),Activity,Mus musculus [7],-26.8%
CN(CCOc1ccc(CC2SC(=O)NC2=O)cc1)c1cc(-c2ccccc2)ccn1 (stereo unspecified),ED25,Mus musculus [20],2.5 mg/kg/day
same,ED25,Mus musculus [21],0.02 mg/kg/day
O=C(CN1C(=O)S/C(=C\c2ccc(Br)cc2)C1=O)Nc1ccc(C(=O)O)cc1,Activity,Rattus norvegicus [22],47.65 mg/dL
same,Activity,Rattus norvegicus [23],34.71 mg/dL
COc1cc(/C=C2\SC(=O)NC2=O)cc(OC)c1OC,MIC,Staphylococcus aureus [13],200 µg/mL
same,MIC,Escherichia coli [6],250 µg/mL
COC(=O)CN1C(=O)S/C(=C\c2cn(CC(=O)OC)cn2)C1=O,MIC,Staphylococcus aureus [24],3.8 µg/mL
same,MIC,Escherichia coli [25],1.6 µg/mL
same,MIC,Aspergillus niger [26],7.9 µg/mL
same,MIC,Aspergillus fumigatus,1.7 µg/mL
same,MIC,[27],2.2 µg/mL
same,MIC,Pseudomonas aeruginosa [28],2.8 µg/mL
COc1cc(Br)cc(CC2SC(=O)NC2=O)c1CC(=O)O (stereo unspecified),Activity,[29],65%
CN(CCOc1ccc(CC2SC(=O)NC2=O)cc1)Cc1nc(N2CCOCC2)nc(N2CCOCC2)n1 (stereo unspecified),Activity,Rattus norvegicus [30],3.16%
same,Ratio,Rattus norvegicus [31],4.02
CN(C)C(=N)NC(=N)N [METFORMIN],Activity,Mus musculus [7],-34.1%
CC(C)c1ccc(N(C)CCOc2ccc(CC3SC(=O)NC3=O)cc2)cc1 (stereo unspecified),inhibition (INH),RAW264.7,51.5%
N#Cc1ccccc1-c1ccc(CN2C(=O)S/C(=C\c3c(Cl)cccc3Cl)C2=O)cc1,IC50,[32],132000 nM
same,MIC,Escherichia coli [6],63.6 µg/mL
same,MIC,Bacillus subtilis,100 µg/mL
same,MIC,Bacillus subtilis; [34],63.6 µg/mL
CN(CCOc1ccc(CC2SC(=O)NC2=O)cc1)c1ccccn1 (stereo unspecified) [ROSIGLITAZONE],Activity,Rattus norvegicus [22],50.5 mg/dL
same,ED25,Mus musculus [20],> 30 mg/kg/day
same,ED25,Mus musculus [21],4.1 mg/kg/day
same,Activity,Rattus norvegicus [23],36 mg/dL
same,Activity,Mus musculus [18],65%
same,Activity,Mus musculus [19],41%
same,Activity,Mus musculus [7],-11.6%
Cc1c(C)c2c(c(C)c1OCc1ccccc1)C(CN1CCC[C@H]1COc1ccc(/C=C3\SC(=O)NC3=O)cc1)C(C)(C)O2 (stereo partly specified),Activity,Mus musculus [33],8 mM
